How the values were obtained:
[1] = system: writhes induced by intraperitoneal acetic acid; test: Analgesic activity, acetic acid-induced writhing test (peripheral pain model); assay type: in vivo; settings: 1 mg/kg intraperitoneally, 40 min before 0.75% acetic acid
Method: Assessment of analgesic activity was performed in a model of peripheral pain based on chemical pain induced by intraperitoneal administration of acetic acid, leading to involuntary contractions of abdominal muscles, termed “writhes”, accompanied by hind leg extension and spine arching. The writhes were induced by 0.75% solution of acetic acid, which was administered intraperitoneally 40 min after intraperitoneal administration of test compounds in 0.001-5 mg/kg dose range. […] Analgesic activity was assessed by the ability of the compounds to reduce the number of writhes in test group compared to control group, and indicated as percentage using the following formula: AA=(Wc−Wt/Wc)×100%,
where AA—analgesic activity in %;
Wc—average number of writhes in control group;
Wt—average number of writhes in test group
Test compounds were studied in comparison with the reference drug sodium diclofenac in 10 mg/kg dose. ED50 was calculated using Prozorovsky method.

[2] = system: central benzodiazepine receptors (CBR); test: Affinity to central benzodiazepine receptors, competitive displacement of [3H]-flumazenil (radioreceptor method); assay type: binding; settings: 1×10^−6 mol/L
Method: Affinity of the compounds to central benzodiazepine receptors (CBR) was studied using radioreceptor method of competitive displacement of radioligant [^3H]-flumazenil (Ro 15-1788) from its specific binding sites at the receptor. Ligand displacement were performed in 1×10^−6 mol/L concentration.
(§1) Data on the affinity of 3-alcoxy-1,3-dihydro-2H-benzo[e][1,4]diazepin-2-ones (Ia) to central and peripheral benzodiazepine receptors is presented in Table 3.

[3] = molecular target: peripheral benzodiazepine receptors (PBR) (Homo sapiens, UniProt P30536); test: Affinity to peripheral benzodiazepine receptors; assay type: binding; settings: 1×10^−6 mol/L
Source text: as §1

[4] = system: number of drinking actions despite electric shock; test: Anxiolytic activity, conflict situation model (drinking versus electric shock); assay type: in vivo; settings: number of drinking actions despite electric shock, 30 min before test
Method: Anxiolytic activity was assessed in a model of conflict situation based on the conflict of two reflexes (drinking and defensive) when drinking water from a water fountain. Anxiolytic activity was assessed by the number of drinking actions despite electric shock.
(§2) Diazepam drug was used as the reference drug. All test compounds and the reference drug diazepam were administered in a suspension with Tween-80 in 5 mg/kg dose 30 min before the start of experiments.

[5] = system: general movement activity of animals; test: General movement activity, open field test; assay type: in vivo; settings: for General movement activity (5 mg/kg): open field 3 min, sum of rearings, transitions, explored holes, 30 min before test; for Sedative properties (words, from general movement activity versus control): 5 mg/kg
Method: General movement activity was assessed in an open field test. While the animals were in the open field (3 min), the number of rearings (vertical movement activity), transitions between squares (horizontal movement activity) and the number of explored holes (exploratory activity) were registered. The sum of these values is general movement activity.
as §2

Chain of peripheral benzodiazepine receptors (PBR) (P30536 whole entry, species assumed): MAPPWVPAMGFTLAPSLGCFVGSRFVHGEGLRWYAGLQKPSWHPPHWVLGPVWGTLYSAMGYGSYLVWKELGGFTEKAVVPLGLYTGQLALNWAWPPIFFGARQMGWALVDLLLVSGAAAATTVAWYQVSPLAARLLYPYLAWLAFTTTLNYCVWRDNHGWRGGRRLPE

| Structure (SMILES) | Writhing inhibition, % of control in 1 mg/kg dose ([1]; compounds Ia) | Affinity CBR, % [2] | Affinity PBR, % [3] | Anxiolytic activity assessed using conflict situation method (5 mg/kg) [4] | Writhing inhibition, % of control in 1 mg/kg dose ([1]; compounds Ib) | General movement activity (5 mg/kg) [5] | Sedative properties (words, from general movement activity versus control) [5] |
| --- | --- | --- | --- | --- | --- | --- | --- |
| CCCOC1N=C(c2ccccc2F)c2cc(Br)ccc2NC1=O (centres unmarked) [Compound 2] | 55% | 85% | 5% |  |  |  |  |
| O=C1Nc2ccc(Br)cc2C(c2ccccc2F)=NC1OCCO (centres unmarked) [Compound 4] | 56% | 91% | 8% |  |  |  |  |
| CCCCOC1N=C(c2ccccc2)c2cc(OC(F)(F)F)ccc2NC1=O (centres unmarked) [Compound 29] | 56% | 61% | 15% |  |  |  |  |
| CCCOC1N=C(c2ccccc2)c2cc(OC(F)(F)F)ccc2NC1=O (centres unmarked) [Compound 28] | 60% | 60% | 18% |  |  |  |  |
| COCCOC1N=C(c2ccccc2)c2cc(Cl)ccc2NC1=O (centres unmarked) [Compound 16] | 55% | 88% | 15% |  |  |  |  |
| CCOC1N=C(c2ccccc2Cl)c2cc([N+](=O)[O-])ccc2NC1=O (centres unmarked) [Compound 53] |  | 85% | 15% |  |  |  |  |
| COC(=O)CN1C(=O)C(Nc2cccc(F)c2)N=C(c2ccccc2Cl)c2cc([N+](=O)[O-])ccc21 (centres unmarked) [Compound 318] |  |  |  | 19.2 ± 3.4 | 65% | 28.5 ± 2.3 |  |
| COC(=O)CN1C(=O)C(Nc2ccc(Cl)cc2)N=C(c2ccccc2F)c2cc([N+](=O)[O-])ccc21 (centres unmarked) [Compound 364] |  |  |  | 26.2 ± 3.4 | 64% | 34.5 ± 3.3 |  |
| COC(=O)CN1C(=O)C(Nc2ccccc2Br)N=C(c2ccccc2Cl)c2cc([N+](=O)[O-])ccc21 (centres unmarked) [Compound 326] |  |  |  | 45.1 ± 2.6 | 62% | 22.0 ± 2.0 |  |
| COC(=O)CN1C(=O)C(Nc2ccc([N+](=O)[O-])cc2)N=C(c2ccccc2)c2cc(Cl)ccc21 (centres unmarked) [Compound 175] |  |  |  | 48.7 ± 3.6 | 55% | 20.0 ± 1.0 |  |
| O=C1Nc2ccc(OC(F)(F)F)cc2C(c2ccccc2)=NC1OCCO (centres unmarked) [Compound 30] | 50% | 65% | 16% |  |  |  |  |
| O=C1Nc2ccc(Br)cc2C(c2ccccc2F)=NC1OCC1CC1 (centres unmarked) [Compound 6] | 55% | 89% | 15% |  |  |  |  |
| COC(=O)CN1C(=O)C(Nc2ccccc2Cl)N=C(c2ccccc2F)c2cc([N+](=O)[O-])ccc21 (centres unmarked) [Compound 362] |  |  |  | 35.1 ± 3.5 | 65% | 29.2 ± 2.3 |  |
| CCOC1N=C(c2ccccc2)c2cc(OC(F)(F)F)ccc2NC1=O (centres unmarked) [Compound 27] | 55% | 56% | 16% |  |  |  |  |
| O=C1Nc2ccc(Cl)cc2C(c2ccccc2)=NC1OCC1CC1 (centres unmarked) [Compound 17] | 54% | 79% | 14% |  |  |  |  |
| COC(=O)CN1C(=O)C(Nc2ccc([N+](=O)[O-])cc2)N=C(c2ccccc2)c2cc(OC(F)(F)F)ccc21 (centres unmarked) [Compound 229] |  |  |  | 38.7 ± 2.6 | 59% | 19.0 ± 1.0 |  |
| COC(=O)CN1C(=O)C(Nc2ccc(F)cc2)N=C(c2ccccc2Cl)c2cc([N+](=O)[O-])ccc21 (centres unmarked) [Compound 319] |  |  |  | 18.1 ± 2.2 | 61% | 27.2 ± 2.1 |  |
| COC(=O)CN1C(=O)C(Nc2cccc(C(F)(F)F)c2)N=C(c2ccccc2F)c2cc([N+](=O)[O-])ccc21 (centres unmarked) [Compound 399] |  |  |  | 44.4 ± 4.3 | 70% | 41.8 ± 4.3 | don't have sedative properties |
| CCCCOC1N=C(c2ccccc2Cl)c2cc([N+](=O)[O-])ccc2NC1=O (centres unmarked) [Compound 55] |  | 87% | 19% |  |  |  |  |
| COC(=O)CN1C(=O)C(Nc2ccccc2F)N=C(c2ccccc2Cl)c2cc([N+](=O)[O-])ccc21 (centres unmarked) [Compound 317] |  |  |  | 33.4 ± 3.2 | 63% | 47.0 ± 3.7 | don't have sedative properties |
| COC(=O)CN1C(=O)C(Nc2ccc([N+](=O)[O-])cc2)N=C(c2ccccc2)c2cc([N+](=O)[O-])ccc21 (centres unmarked) [Compound 283] |  |  |  | 45.1 ± 2.6 | 54% | 22.0 ± 2.0 |  |
| COCCOC1N=C(c2ccccc2F)c2cc(Br)ccc2NC1=O (centres unmarked) [Compound 5] | 52% | 90% | 10% |  |  |  |  |
| COC(=O)CN1C(=O)C(Nc2cccc([N+](=O)[O-])c2)N=C(c2ccccc2)c2cc([N+](=O)[O-])ccc21 (centres unmarked) [Compound 282] |  |  |  | 44.7 ± 3.9 | 59% | 19.0 ± 2.4 |  |
| COC(=O)CN1C(=O)C(Nc2cccc([N+](=O)[O-])c2)N=C(c2ccccc2)c2cc(Cl)ccc21 (centres unmarked) [Compound 174] |  |  |  | 60.6 ± 7.0 | 58% | 18.0 ± 2.4 |  |
| CCCCOC1N=C(c2ccccc2F)c2cc(Br)ccc2NC1=O (centres unmarked) [Compound 3] | 45% | 88% | 8% |  |  |  |  |
| COC(=O)CN1C(=O)C(Nc2ccc(C(C)=O)cc2)N=C(c2ccccc2F)c2cc(Br)ccc21 (centres unmarked) [Compound 91] |  |  |  | 4.9 ± 2.2 | 62% | 25.2 ± 2.1 |  |
| COC(=O)CN1C(=O)C(Nc2cccc([N+](=O)[O-])c2)N=C(c2ccccc2)c2cc(OC(F)(F)F)ccc21 (centres unmarked) [Compound 228] |  |  |  | 40.6 ± 3.9 | 62% | 17.0 ± 2.4 |  |
| CCCOC1N=C(c2ccccc2Cl)c2cc([N+](=O)[O-])ccc2NC1=O (centres unmarked) [Compound 54] |  | 88% | 16% |  |  |  |  |
